For this test, the system named is IL-12. The test is described as follows: Human in vitro assay: inhibition of IL-12 production in IFNγ/LPS- or IFNγ/SAC-stimulated human PBMC or THP-1 cells (ELISA). Type of test: cell-based. As to conditions: read-out: IC50 Range (representative in vitro IC50 data). In outline:
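Sandwich ELISA for IL-12 (p70, p40) on supernatants collected 18 h after stimulation gave IC50 values; MTS monitored viability. THP-1 cells: IFNγ 100 U/mL priming 22 h, SAC 0.025%. PBMC: IFNγ 30 U/mL for 22 h plus LPS 1 μg/mL, or IFNγ 100 U/mL plus SAC 0.01%. Final DMSO 0.25%.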

From patent publication US20060223996A1, “IL-12 modulatory compounds” (Synta Pharmaceuticals Corp., priority 2004, published 2006) come the findings set out here.

Where only a bound is given, the exact number is not on record here.

For `COCCN(C)c1cc(N2CCOCC2)cc(C(=O)Nc2ccc3[nH]c(C)c(C)c3c2)n1` [Compound 156, 6-[(2-Methoxy-ethyl)-methyl-amino]-4-morpholin-4-yl-pyridine-2-carboxylic acid (2,3-dimethyl-1H-indol-5-yl)-amide], the IC50 (as a rule, the concentration at which inhibition is half-maximal) is below 1000 nM.
In the case of `COCCN(C)c1cc(N2CCOCC2)cc(C(=O)Nc2cccc(N(C)C)c2)n1` [Compound 157, 6-[(2-Methoxy-ethyl)-methyl-amino]-4-morpholin-4-yl-pyridine-2-carboxylic acid (3-dimethylamino-phenyl)-amide] it was at least 1000 nM; in that of `COCCN(C)c1cc(C(=O)Nc2ccc3[nH]c(C)c(C)c3c2)nc(N2CCOCC2)c1` [Compound 158, 4-[(2-Methoxy-ethyl)-methyl-amino]-6-morpholin-4-yl-pyridine-2-carboxylic acid (2,3-dimethyl-1H-indol-5-yl)-amide], below 1000 nM; in that of `COCCN(C)c1cc(C(=O)Nc2cccc(N(C)C)c2)nc(N2CCOCC2)c1` [Compound 159, 4-[(2-Methoxy-ethyl)-methyl-amino]-6-morpholin-4-yl-pyridine-2-carboxylic acid (3-dimethylamino-phenyl)-amide], below 1000 nM.
As for `CONc1cc(C(=O)Nc2cccc(N(C)C)c2)nc(N2CCOCC2)c1` [Compound 160, 4-Methoxyamino-6-morpholin-4-yl-pyridine-2-carboxylic acid (3-dimethylamino-phenyl)-amide], the IC50 was below 1000 nM.
For the compound `CONc1cc(C(=O)Nc2ccc3[nH]c(C)c(C)c3c2)nc(N2CCOCC2)c1` [Compound 161, 4-Methoxyamino-6-morpholin-4-yl-pyridine-2-carboxylic acid (2,3-dimethyl-1H-indol-5-yl)-amide], the IC50 was below 1000 nM.
`COCCN(C)c1cc(C(=O)NCCN(C)C)nc(N2CCOCC2)n1` [Compound 162, 6-[(2-Methoxy-ethyl)-methyl-amino]-2-morpholin-4-yl-pyrimidine-4-carboxylic acid (2-dimethylamino-ethyl)-amide]: the 50% inhibitory concentration (IC50) is at least 1000 nM.
Turning to `O=C(Nc1nnc(C2CC2)s1)c1cc(OCCN2CCOCC2)nc(N2CCOCC2)n1` [Compound 163, 2-Morpholin-4-yl-6-(2-morpholin-4-yl-ethoxy)-pyrimidine-4-carboxylic acid (5-cyclopropyl-[1,3,4]thiadiazol-2-yl)-amide], the IC50 is at least 1000 nM.
With `CCN(CC)Cc1cc(NC(=O)c2cc(N(C)CCOC)nc(N3CCOCC3)n2)ccc1O` [Compound 164, 6-[(2-Methoxy-ethyl)-methyl-amino]-2-morpholin-4-yl-pyrimidine-4-carboxylic acid (3-diethylaminomethyl-4-hydroxy-phenyl)-amide] the figure was at least 1000 nM; with `COCCN(C)c1cc(C(=O)Nc2ccc(NC(C)=O)cc2)nc(N2CCOCC2)n1` [Compound 165, 6-[(2-Methoxy-ethyl)-methyl-amino]-2-morpholin-4-yl-pyrimidine-4-carboxylic acid (4-acetylamino-phenyl)-amide], at least 1000 nM; with `COCCN(C)c1cc(C(=O)Nc2cccc(N(C)C(C)=O)c2)nc(N2CCOCC2)n1` [Compound 166, 6-[(2-Methoxy-ethyl)-methyl-amino]-2-morpholin-4-yl-pyrimidine-4-carboxylic acid [3-(acetyl-methyl-amino)-phenyl]-amide], at least 1000 nM.
Turning to `Cc1[nH]c2ccc(NC(=O)c3cccc(N4CCOCC4)n3)cc2c1C` [Compound 168, 6-Morpholin-4-yl-pyridine-2-carboxylic acid (2,3-dimethyl-1H-indol-5-yl)-amide], the half-maximal inhibitory concentration (IC50) is below 1000 nM.
`CC(=O)N1CCN(c2cc(C(=O)Nc3ccc4[nH]c(C)c(C)c4c3)nc(N3CCOCC3)c2)CC1` [Compound 169, 4-(4-Acetyl-piperazin-1-yl)-6-morpholin-4-yl-pyridine-2-carboxylic acid (2,3-dimethyl-1H-indol-5-yl)-amide]: the half-inhibitory concentration (IC50) was below 1000 nM.
As to `Cc1nccc(-c2cccc(NC(=O)c3cc(OCCN4CCOCC4)nc(N4CCOCC4)n3)c2)n1` [Compound 170, 2-Morpholin-4-yl-6-(2-morpholin-4-yl-ethoxy)-pyrimidine-4-carboxylic acid [3-(2-methyl-pyrimidin-4-yl)-phenyl]-amide], the IC50 was at least 1000 nM.
In the case of `Cc1[nH]c2ccc(NC(=O)c3cc(N4CCC(O)CC4)cc(N4CCOCC4)n3)cc2c1C` [Compound 171, 4-Hydroxy-6′-morpholin-4-yl-3,4,5,6-tetrahydro-2H-[1,4′]bipyridinyl-2′-carboxylic acid (2,3-dimethyl-1H-indol-5-yl)-amide] it was below 1000 nM.
For the compound `Cc1[nH]c2ccc(NC(=O)c3cc(N4CCC5(CC4)OCCO5)nc(N4CCOCC4)n3)cc2c1C` [Compound 172, 6-(1,4-Dioxa-8-aza-spiro[4.5]dec-8-yl)-2-morpholin-4-yl-pyrimidine-4-carboxylic acid (2,3-dimethyl-1H-indol-5-yl)-amide], the half-maximal inhibitory concentration (IC50) is below 1000 nM.
With `Cc1[nH]c2ccc(NC(=O)c3cc(N4CCC(O)CC4)nc(N4CCOCC4)n3)cc2c1C` [Compound 173, 6-(4-Hydroxy-piperidin-1-yl)-2-morpholin-4-yl-pyrimidine-4-carboxylic acid (2,3-dimethyl-1H-indol-5-yl)-amide], the IC50 is below 1000 nM.
As to `CCc1c[nH]c2ccc(NC(=O)c3cc(N4CCC(O)CC4)cc(N4CCOCC4)n3)cc12` [Compound 174, 4-Hydroxy-6′-morpholin-4-yl-3,4,5,6-tetrahydro-2H-[1,4′]bipyridinyl-2′-carboxylic acid (3-ethyl-1H-indol-5-yl)-amide], the IC50 was below 1000 nM.
In the case of `CCc1c[nH]c2ccc(NC(=O)c3cc(N4CCC5(CC4)OCCO5)nc(N4CCOCC4)n3)cc12` [Compound 175, 6-(1,4-Dioxa-8-aza-spiro[4.5]dec-8-yl)-2-morpholin-4-yl-pyrimidine-4-carboxylic acid (3-ethyl-1H-indol-5-yl)-amide] it was below 1000 nM; in that of `CCOC(=O)C1CCN(c2cc(C(=O)Nc3ccc4[nH]c(C)c(C)c4c3)nc(N3CCOCC3)c2)CC1` [Compound 176, 2′-(2,3-Dimethyl-1H-indol-5-ylcarbamoyl)-6′-morpholin-4-yl-3,4,5,6-tetrahydro-2H-[1,4′]bipyridinyl-4-carboxylic acid ethyl ester], below 1000 nM; in that of `CCc1c(C)[nH]c2ccc(NC(=O)c3cc(N4CCC(O)CC4)nc(N4CCOCC4)n3)cc12` [Compound 177, 6-(4-Hydroxy-piperidin-1-yl)-2-morpholin-4-yl-pyrimidine-4-carboxylic acid (3-ethyl-2-methyl-1H-indol-5-yl)-amide], below 1000 nM.
With `CCc1c[nH]c2ccc(NC(=O)c3cc(N4CCC(C)CC4)nc(N4CCOCC4)n3)cc12` [Compound 178, 6-(4-Methyl-piperidin-1-yl)-2-morpholin-4-yl-pyrimidine-4-carboxylic acid (3-ethyl-1H-indol-5-yl)-amide] the figure was below 1000 nM; with `CCc1c[nH]c2ccc(NC(=O)c3cc(N4CCCCC4)nc(N4CCOCC4)n3)cc12` [Compound 179, 2-Morpholin-4-yl-6-piperidin-1-yl-pyrimidine-4-carboxylic acid (3-ethyl-1H-indol-5-yl)-amide], below 1000 nM.
With `CCc1c(C)[nH]c2ccc(NC(=O)c3cc(N4CCC5(CC4)OCCO5)nc(N4CCOCC4)n3)cc12` [Compound 180, 6-(1,4-Dioxa-8-aza-spiro[4.5]dec-8-yl)-2-morpholin-4-yl-pyrimidine-4-carboxylic acid (3-ethyl-2-methyl-1H-indol-5-yl)-amide] the figure was below 1000 nM; with `CCc1c[nH]c2ccc(NC(=O)c3cc(N4CCN(C(C)=O)CC4)cc(N4CCOCC4)n3)cc12` [Compound 181, 4-(4-Acetyl-piperazin-1-yl)-6-morpholin-4-yl-pyridine-2-carboxylic acid (3-ethyl-1H-indol-5-yl)-amide], below 1000 nM; with `Cc1[nH]c2ccc(NC(=O)c3cc(N4CCCCC4)cc(N4CCOCC4)n3)cc2c1C` [Compound 182, 6′-Morpholin-4-yl-3,4,5,6-tetrahydro-2H-[1,4′]bipyridinyl-2′-carboxylic acid (2,3-dimethyl-1H-indol-5-yl)-amide], below 1000 nM.
For the compound `CCc1c(C)[nH]c2ccc(NC(=O)c3cc(N4CCC(C(N)=O)CC4)nc(N4CCOCC4)n3)cc12` [Compound 183, 6-(4-Carbamoyl-piperidin-1-yl)-2-morpholin-4-yl-pyrimidine-4-carboxylic acid (3-ethyl-2-methyl-1H-indol-5-yl)-amide], the IC50 was below 1000 nM.
In the case of `O=C(Nc1ccc2[nH]c3c(c2c1)CCCC3)c1cc(N2CCC(O)CC2)nc(N2CCOCC2)n1` [Compound 184, 6-(4-Hydroxy-piperidin-1-yl)-2-morpholin-4-yl-pyrimidine-4-carboxylic acid (6,7,8,9-tetrahydro-5H-carbazol-3-yl)-amide], the IC50 was below 1000 nM.
In the case of `O=C(Nc1ccc2[nH]c3c(c2c1)CCCC3)c1cc(N2CCC(O)CC2)cc(N2CCOCC2)n1` [Compound 185, 4-Hydroxy-6′-morpholin-4-yl-3,4,5,6-tetrahydro-2H-[1,4′]bipyridinyl-2′-carboxylic acid (6,7,8,9-tetrahydro-5H-carbazol-3-yl)-amide; compound with methanesulfonic acid] it was below 1000 nM; in that of `Cc1c[nH]c2ccc(NC(=O)c3cc(N4CCC(O)CC4)nc(N4CCOCC4)n3)cc12` [Compound 187, 6-(4-Hydroxy-piperidin-1-yl)-2-morpholin-4-yl-pyrimidine-4-carboxylic acid (3-methyl-1H-indol-5-yl)-amide], below 1000 nM; in that of `Cc1[nH]c2ccc(NC(=O)c3cc(N(C)CCO)nc(N4CCOCC4)n3)cc2c1C` [Compound 189, N-(2,3-dimethyl-1H-indol-5-yl)-6-((2-hydroxyethyl)(methyl)amino)-2-morpholinopyrimidine-4-carboxamide], below 1000 nM.
